The source of these data is US9296831B2, “Herbal extract composition for the treatment of diabetes and a method of extracting the same” (priority 2014, dated 2016).

One series has as its system Wistar rats. Briefly: Post prandial blood sugar (BS) levels in STZ-induced diabetic rats. The series is classed as in vivo, rat. As to conditions: oligosaccharide 16 mg/kg, metformin 15 mg/kg/day. The protocol:
According to one embodiment herein, the oligosaccharide is administered to rats after purification and structural analysis of the oligosaccharide. The eight week old Wistar rats, weighing from 200-250 gm are purchased from Pasteur institute (Tehran, Iran). The animals are kept on a standard diet with free access to water and food throughout the study. All treatments and maintenance of the animals are carried out in accordance with the principles of laboratory animal care. Further diabetes is induced in the animals except the controls by a single intraperitoneal injection of STZ (60 mg/kg) freshly dissolved in citrate buffer of 5 mmol/L and a pH of 4.5. After an elapse of 48 hrs since the injection of streptozocin (STZ), the diabetes is confirmed by measuring the glucose levels in the blood samples. The blood samples are obtained from the retro-orbital sinus of the animals under diethyl ether-induced light anesthesia with GlucoDr Glucometer (Allmedicus; Germany). […] The first group comprises ten rats and is administered with the oligosaccharide. The second group comprises eight rats and the rats in the second group are injected with the citrate buffer. This group is called a negative control group. The amount of citrate buffer administered to the second group and the amount of oligosaccharide administered to the first group are same or equal. The rats in the oligosaccharide treated groups are given different doses (8-40 mg/kg) of the pure materials dissolved in distilled water twice daily for 21 days starting from the third day since the STZ injection. […] The molecules of glybenclamide or metformin are administered intraperitoneally or by oral gavage and stopped after three weeks. The water intake and urine volume are measured throughout the study. Twenty four hours after the administration of the last dose of oligosaccharide, the blood glucose is monitored in fasting and non-fasting states. The body and pancreas weights are compared. Oral glucose tolerance test, insulin tolerance test, gluconeogenesis inhibition test and alfa glucosidase inhibition tests are conducted. […] The untreated negative controls received no molecule, while the test group received oligosaccharide and the positive control received either metformin or glybenclamide. FIG. 2 illustrates a flow chart indicating the administration and testing of the anti-diabetic effect of oligosaccharide molecule, according to an embodiment herein. The process of administering and testing the antidiabetic effect of oligosaccharide molecule comprises purchasing eight week old male Wistar rats weighing 200-250 gm (201). The rats are purchased from Pasteus Institute (Tehran, Iran). The rats are kept on a standard diet with free access to water and food throughout the study. All the treatments and maintenance of the animals is carried out in accordance with the principles of laboratory animal care. Inducing diabetes by stretozotocin (STZ) 60 mg/kg injection (202). The diabetes is induced in all rats except in the rats in the control group by intraperitoneal injection of STZ freshly dissolved in 5 mmol/L citrate buffer (pH 4.5). The diabetes is confirmed 48 hrs after STZ infection by measuring blood glucose levels (203). The blood from rats is obtained from retro-orbital sinus of the animals under diethyl ether induced light anesthesia with GlucoDr Glucometer (Allmedicus; Germany). […] The rats in positive control, negative control and oligosaccharide treated group are divided into different groups (204). The rats in the negative control group are injected with citrate buffer for three weeks (205). The rats in the positive control group are injected with glybendamide and metformin for three weeks (206). The rats in the oligosaccharide group are injected with different concentration (8-40 mg/kg) of oligosaccharide for three weeks (207). The oligosaccharide is dissolved in distilled water and administered twice daily after STZ injection induced diabetes. […]

Series [1] relates to rats. Briefly: Sub acute toxicity test, hematology, 15 days. The format is in vivo. The protocol: (§1) According to one embodiment herein, the acute, sub acute and sub chronic toxicological tests are performed based on the standard protocols. For the acute sequential design procedure of LD-50, limit dose test were done and mortality rate is recorded up to 14 days. […] For the animals in the control groups, distilled water is administered by the same protocols. At the end of the time period, the rats are killed and the body specimens are collected for the determination of biochemical, hematological and pathological parameters.

The test system of series [2] is rats. Briefly: Sub acute toxicity test, biochemistry, 15 days. The series is classed as in vivo. The protocol: as §1
In series [3] the test system is rats. As to conditions: rat, in vivo. The method, then: According to one embodiment herein, the acute, sub acute and sub chronic toxicological tests are performed based on the standard protocols. For the acute sequential design procedure of LD-50, limit dose test were done and mortality rate is recorded up to 14 days. Sub acute and sub chronic toxicological tests are performed by an administration of 160 mg/kg (10 folds of therapeutics dose) for 21 and 52 days respectively. For the animals in the control groups, distilled water is administered by the same protocols. At the end of the time period, the rats are killed and the body specimens are collected for the determination of biochemical, hematological and pathological parameters.

The mark [4] stands for this setting: 21 days after treatment, glybenclamide 5 mg/kg/day.
The mark [5] stands for this setting: 30 days after withdrawal of the treatment, glybenclamide 5 mg/kg/day.
Where [6] appears, read: before treatment (baseline), glybenclamide 5 mg/kg/day groups.

Turning to `COc1ccc(Cl)cc1C(=O)NCCc1ccc(S(=O)(=O)NC(=O)NC2CCCCC2)cc1` [Glybenclamide, glybenclamide], the “BS levels mg/dl (SD), post prandial” value was 250(63) mg/dl with Wistar rats (setting [4]), 363(64) mg/dl in the series on Wistar rats (setting [5]) and 360(41) mg/dl in the series on Wistar rats (setting [6]).

For the compound `CN(C)C(=N)N=C(N)N` [Metformin, metformin], the “BS levels mg/dl (SD), post prandial” value in the series with Wistar rats (setting [4]) is listed as 261(49) mg/dl; in the series with Wistar rats (setting [5]), 375(59) mg/dl; in the series on Wistar rats (setting [6]), 375(57)(20) mg/dl.

Turning to `COC(=O)C1OC(O)C(O)C(O)C1OC1OC(C(=O)OC)C(OC2OC(C(=O)OC)C(OC3OC(C(=O)O)C(O)C(O)C3O)C(O)C2OC(C)=O)C(O)C1O` (centres unmarked) [Oligosaccharide], the “BS levels mg/dl (SD), post prandial” value in the series on Wistar rats (setting [4]) is reported as 150(21) mg/dl. Also, the “BS levels mg/dl (SD), post prandial” value with Wistar rats (setting [5]) is given as 144(18) mg/dl. Further, the “BS levels mg/dl (SD), post prandial” value in the series on Wistar rats (setting [6]) is 364(41) mg/dl. In the series on rats [1] (16 mg/kg), the HCT is on record as 42.8 ± 2.9%, the Hb was determined as 14.3 ± 0.6 g/dL, the MCH stood at 18.1 ± 4.9 pg and the MCHC stood at 33.8 ± 4.7 g/dL. Moreover, in the series with rats [1] (16 mg/kg), the MCV is 54.51 ± 3.2 fL, the PLT is recorded as 9.4 ± 1.3 ×105/ml, the RBC was 8.08 ± 1.3 ×106/ml and the WBC is given as 10.5 ± 3.3 ×103/ml. In the series with rats [1] (160 mg/kg), this compound came in with an HCT of 42.6 ± 1.1%, a Hb of 14.1 ± 0.3 g/dL, an MCH of 18.3 ± 3.9 pg and an MCHC of 33.9 ± 5.1 g/dL. In the series on rats [1] (160 mg/kg), the MCV was found to be 55.9 ± 2.5 fL, the PLT is on record as 9.3 ± 2.1 ×105/ml, the RBC is on record as 7.98 ± 1.9 ×106/ml and the WBC is listed as 8.9 ± 2.9 ×103/ml. Moreover, in the series with rats [2] (16 mg/kg), the ALP was 442.69 ± 90.54 u/l, the ALT stood at 146.33 ± 18.41 u/l, the AST worked out at 169.41 ± 17.5 u/l and the Alb is 3.22 ± 0.04 g/dL. For the same compound, in the series on rats [2] (16 mg/kg), the CPK was 1341.5 ± 311.12 u/l, the Chol came out at 82.15 ± 22.11 mg/dL, the Cr came to 0.66 ± 0.02 mg/dL and the Glucose was 113.61 ± 16.4 mg/dL. In the series on rats [2] (16 mg/kg), this compound came in with an LDH of 2019.7 ± 390.4 u/l, a TG of 98.41 ± 15.63 mg/dL, a Urea of 54.71 ± 9.98 mg/dL and a Uric acid of 1.62 ± 0.32 mg/dL. In the series with rats [2] (160 mg/kg), this compound had an ALP of 351.37 ± 63.21 u/l, an ALT of 142.31 ± 21.32 u/l, an AST of 177.51 ± 24.2 u/l and an Alb of 3.24 ± 0.05 g/dL. In the series with rats [2] (160 mg/kg), this compound showed a CPK of 1398.3 ± 115.5 u/l, a Chol of 81.11 ± 14.31 mg/dL, a Cr of 0.65 ± 0.04 mg/dL and a Glucose of 109.3 ± 10.4 mg/dL. In the series with rats [2] (160 mg/kg), this compound displayed an LDH of 2110.5 ± 504.7 u/l, a TG of 97.99 ± 17.49 mg/dL, a Urea of 54.87 ± 6.63 mg/dL and a Uric acid of 1.58 ± 0.25 mg/dL. Further, the “abnormality in pathologic studies” value in the series on rats [3] is “no abnormality is observed”.
